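Following 48 hours of exposure in 96-well plates, responses at five concentrations were used to interpolate endpoints linearly. GI50 = concentration required for 50% inhibition of growth. The concentration for full growth arrest is given as TGI.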
How the values were obtained:
Assay in all cases: DTP human tumour cell line panel, 48 h
HOP-18 NSCLC = system: HOP-18 NSCLC
KM20L2 colon = system: KM20L2 colon
M19-MEL melanoma = system: M19-MEL melanoma
BT-549 breast = system: BT-549 breast
DU-145 prostate = system: DU-145 prostate
MDA-MB-231 breast = system: MDA-MB-231 breast
MDA-MB-435 = system: MDA-MB-435
NCI/ADR-RES ovarian = system: NCI/ADR-RES ovarian
PC-3 prostate = system: PC-3 prostate

Compound	TGI (HOP-18 NSCLC)	TGI (KM20L2 colon)	TGI (M19-MEL melanoma)	other results
COc1ccc(-c2nc(N)nc(-c3cc(C)ccc3O)c2Cl)cc1	> 100 µM	> 100 µM	> 100 µM	–
Clc1ccc(CCN2CCOCC2)c(Cl)c1	> 100 µM	> 100 µM	> 100 µM	–
CCCCCCCCSC(SCCCCCCCC)=C1C(=O)N(c2ccccc2)N=C1C	> 100 µM	> 100 µM	> 100 µM	–
Cc1nc(Nc2ccc([N+](=O)[O-])cc2)sc1C(=O)/C=C/c1ccc(N(C)C)cc1	> 100 µM	> 100 µM	> 100 µM	–
Clc1cccc(C2SCc3nc4ccccc4n32)c1Cl (centres undefined)	33.1 µM	34.7 µM	29.6 µM	–
Cc1ccc(C)c2sc3cc(=O)ccc-3nc12	> 100 µM	> 100 µM	31.1 µM	–
O=C(O)C(O)C(O)C1[O][Sb][O]C1CO (centres undefined)	> 100 µM	> 100 µM	31 µM	GI50 (BT-549 breast): > 100 µM; TGI (BT-549 breast): > 100 µM; GI50 (DU-145 prostate): > 100 µM; TGI (DU-145 prostate): > 100 µM; GI50 (HOP-18 NSCLC): > 100 µM; GI50 (KM20L2 colon): > 100 µM; GI50 (M19-MEL melanoma): 9.07 µM; GI50 (MDA-MB-231 breast): > 100 µM; TGI (MDA-MB-231 breast): > 100 µM; GI50 (MDA-MB-435): > 100 µM; TGI (MDA-MB-435): > 100 µM; GI50 (NCI/ADR-RES ovarian): > 100 µM; TGI (NCI/ADR-RES ovarian): > 100 µM; GI50 (PC-3 prostate): > 100 µM; TGI (PC-3 prostate): > 100 µM
C[P+](C)(CC(F)(F)F)c1ccccc1	> 100 µM	> 100 µM	> 100 µM	–

Reference: PubChem BioAssay (NCI)
